{"source": "patent US20140323457A1", "about": "“BETA-O/S/N FATTY ACID BASED COMPOUNDS AS ANTIBACTERIAL AND ANTIPROTOZOAL AGENTS” (LUDWIG-MAXIMILIANS-UNIVERSITÄT MÜNCHEN, priority 2011, published 2014)", "key": {"[1]": {"tested_on": "S. aureus strain NCTC 8325", "assay": "liquid culture-based hemolysis assay (secreted hemolysins, sheep red blood cells)", "type": "cell-based", "protocol": "The inhibition of hemolysin production has thus been further analysed in liquid bacterial cultures in order to evaluate their potential effects on bacterial growth simultaneously. Besides AVU1Acid, AVU1AAc, AVU1AA and VK273 the following further compounds were tested in liquid bacterial cultures:\n(§1) 1 ml of an appropriate bacterial broth for the standard laboratory S. aureus strain NCTC 8325 were inoculated with 1*10^6 cfu. The cultures were kept overnight at 37° C. with gentle shaking 300 rpm in the presence of compounds AVU1Acid, AVU1AAc, AVU1AA or VK273 according to the present invention at different concentrations or dimethyl sulfoxide (DMSO) as control. Different beta-lactone virulence inhibitors were used as reference compounds. Following overnight incubation the optical density was measured in order to determine the minimal inhibiting concentration (MIC), which is defined as the lowest concentration of an antimicrobial that will inhibit the visible growth of a microorganism after overnight incubation. A 100 μl fraction of the supernatant of the grown bacterial cultures was subsequently analysed for the content of secreted bacterial hemolysins by addition of sheep red blood cells (10% v/v in PBS) and the measurement of the optical density at 410 nm after 30 min incubation at 37° C.\nThe following results were obtained in further liquid culture-based hemolysis assays. Since the assays were performed at different times with different charges of sheep red blood cells AVU1 has been tested as a reference substance in each assay. The resulting EC50 values determined for the tested compounds have to be assessed with respect to the EC50 value determined for AVU1."}, "[2]": {"tested_on": "S. aureus strain NCTC 8325", "assay": "minimal inhibiting concentration (MIC) in liquid bacterial culture", "type": "cell-based", "conditions": "overnight 37° C., read-out: MIC", "protocol": "as §1"}, "[3]": {"assay": "stability in mouse plasma", "type": "in vitro ADME", "conditions": "100 μM, 37° C., 0-240 min; FIG. 8, FIG. 10", "protocol": "(§2) We investigated the stability of the compound herein in plasma preparations in comparison the beta-lactone compounds. Human plasma was obtained lyophilized from Sigma and reconstituted in sterile H2O. For human plasma 3.8% trisodium citrate was used as anticoagulant. Mouse plasma was prepared from whole blood samples from SKH-1 and Balb/C mice using Lithium-Heparin as anticoagulant and pooled from at least three different donor animals. Plasma samples were sterile filtered and stored in aliquots at −20° C. […] Test compounds were diluted 1:100 from a DMSO stock solution to a final concentration of 100 μM in both human and mouse plasma prewarmed for 10 min in an orbital shaker to 37° C. Test compounds were further incubated at 37° C. in the orbital shaker. Samples were withdrawn at time points 0, 5, 10, 20, 30, 60, 120, 240 min and immediately quenched by the addition of an equal volume of ice-cold acetonitrile. Subsequently, all samples were spun at maximum speed in a microcentrifuge to pellet precipitated proteins and samples were prepared for LC-MS analysis. Compound quantification occurred through analysis via the LTQ-FT high resolution mass-spectrometer and XCalibur-Software purchased at Thermo Scientific, Dreieich, D-63303 Germany."}, "[4]": {"tested_on": "S. aureus NCTC 8325", "assay": "agar plate-based hemolysis assay on sheep blood agar", "type": "cell-based", "conditions": "FIG. 1; over night at 37° C.", "source_text": "Several compounds of the invention as well as reference compounds have been tested against S. aureus NCTC 8325 on sheep blood agar. Hemolysins are key virulence factors of S. aureus that contribute to the pathogenicity of these bacteria. The production of hemolysins can be easily monitored by lysis of sheep blood and generation of a clear zone around the bacterial colonies on the agar plate. Hemolysins are co-regulated with the majority of important virulence factors and have been qualified in previous studies as a reliable measure of agr quorum sensing regulated virulence (T. Böttcher, S. A. Sieber, J Am Chem Soc 2008, 130, 14400).\nAgar plate-based hemolysis was tested on 5% sheep blood agar plates (Heipha Diagnostika, Eppelheim, Germany). Sterile circles of Whatman® cards (No. 1, Schleicher & Schuell) with 5.5 mm diameter were placed on the agar plates and inoculated with 2.5 μL of the corresponding lactone/DMSO and 2.5 μL stationary phase culture of S. aureus NCTC 8325 diluted to OD600=0.13. The plates were incubated over night at 37° C. and the diameters of the zones around the bacterial colonies were precisely measured using a vernier caliper. Doses of the compounds required to produce the half maximum effect (ED50) were calculated from curve fittings by Microcal™ Origin 6.0."}, "[5]": {"target": "T1, CIpP protease from S. aureus NCTC8325 (SaCIpP) (Staphylococcus aureus, UniProt Q2G036)", "T1 construct": "made in house; host or cells: E. coli", "T1 sequence (Q2G036 1-195)": "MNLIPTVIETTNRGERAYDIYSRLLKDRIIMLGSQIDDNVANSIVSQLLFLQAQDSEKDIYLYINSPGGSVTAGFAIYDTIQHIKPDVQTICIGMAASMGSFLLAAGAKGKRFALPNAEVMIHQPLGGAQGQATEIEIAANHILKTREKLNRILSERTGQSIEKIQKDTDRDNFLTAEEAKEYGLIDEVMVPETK", "assay": "in vitro inhibition of recombinant S. aureus CIpP with SLY-AMC substrate", "type": "biochemical", "conditions": "inhibitor 2 mM (1000×), 30 min RT; SLY-AMC 200 μM; FIG. 3", "protocol": "The CIpP protease from S. aureus NCTC8325 (SaCIpP) was recombinantly overexpressed in E. coli and purified in order to investigate enzyme inhibition using SLY-AMC (N-succinyl-Leu-Tyr-7-amido-4-methylcoumarin) as fluorogenic model substrate.\nPrecisely, 9 μl of SaCIpP in buffered solution (final concentration 0.05 mg/ml, 2 μM; buffer: 100 mM NaCl, 20 mM Tris, pH 7.0) were incubated in the presence of 1 μl of various inhibitors (final concentration 2 mM=1000×) for 30 min at room temperature (RT). Subsequently, SLY-AMC was added to a final concentration of 200 μM and the increase in fluorescence due to enzymatic substrate proteolysis was measured using a TECAN GENios Pro™ plate reader at 380/440 nm (excitation/emission) at time intervals of 60 s over 40 min at 37° C. The enzymatic activity was determined as the slope of fluorescence (2=440 nm) over time. As positive controls, the in vivo active beta-lactone compound AVU1 (“U1”; WO 2009/106211) and the in vitro potent CIpP beta-lactone inhibitor D3 (WO 2009/106211) were employed."}, "[6]": {"assay": "stability in human plasma", "type": "in vitro ADME", "conditions": "SKH-1 and Balb/C (mouse plasma); positive control at 100 μM in every experiment (human and mouse plasma), 37° C.", "protocol": "as §2"}, "[7]": {"target": "T2, CIpP (Staphylococcus aureus, UniProt Q2G036)", "T2 construct": "Living S. aureus NCTC8325 cells from a fresh stationary liquid culture were aliquoted; endogenous in cells; host or cells: living S. aureus NCTC8325 cells", "T2 sequence (Q2G036 1-195)": "T1 sequence (Q2G036 1-195)", "assay": "competitive ABPP proteome labeling of living S. aureus cells with U1P probe", "type": "binding", "conditions": "FIG. 4", "source_text": "The compound U1P was used as a probe for activity-based labeling (activity-based protein profiling, ABPP) of the S. aureus NCTC 8325 proteome, as described in WO 2009/106211.\nThe U1P ABPP probe represents the lead structures of the known beta-lactone CIpP inhibitors modified with a terminal alkyne group. This compound is both active in hemolysis inhibition and CIpP inhibition. The terminal alkyne group comprised in UIP can be used for appending a fluorophore such as rhodamine-azide using click chemistry (1,3-dipolar Huisgen cycloaddition), which allows to scan the proteome of S. aureus for possible covalent binding partners. This compound consistently labels CIpP protease in a covalent manner in S. aureus proteomes.\nThe inventors used this compound in order to investigate whether compounds according to the present invention are able to reduce or suppress by non-covalent binding the covalent binding of the U1P ABPP probe to proteins of the S. aureus proteome. For a detailed description of the technique underlying these experiments see T. Böttcher, M. Pitscheider S. A. Sieber, Angew Chem Int Ed Engl. 2010, 2680.\nLiving S. aureus NCTC8325 cells from a fresh stationary liquid culture were aliquoted to equivalents of 1 ml of OD600=2. Bacterial cells were washed and resuspended in 100 μl PBS. Bacterial cell aliquots were then pre-incubated with the compounds AVU1AA or VK273 of the invention for 1 h at RT at final concentrations of 5 or 10 mM. Subsequently, the covalent ABPP probe UIP was added to a final concentration of 100 μM for 30 min at RT. After the competitive labeling procedure bacterial cells were washed twice, disrupted and labeled with rhodamine-azide using click chemistry. The labeled S. aureus proteome samples were separated by SDS-PAGE and visualized using fluorescence scanning."}, "[8]": {"conditions": "Staphylococcus aureus, NCTC8325, Erythrocyte, Assay 1, hemolysin production"}, "[9]": {"conditions": "Staphylococcus aureus, NCTC8325, Assay 1"}}, "note": "Where two headings read alike, the source gives them in different places.", "data": [{"smiles": "C=CCCCCCCC[C@H]1C(=O)O[C@@H]1CCc1ccccc1", "note": "[AVU1, reference compound]", "values": [{"measurement": "EC50", "setting": "[1]; [8]", "value": 142, "unit": "µM"}, {"measurement": "EC50", "setting": "[1]; Staphylococcus aureus, NCTC8325, Erythrocyte, Assay 2, hemolysin production, assess relative to AVU1", "value": "10 to 50", "unit": "µM"}, {"measurement": "EC50", "setting": "[1]; Staphylococcus aureus, NCTC8325, Erythrocyte, Assay 3, hemolysin production, assess relative to AVU1", "value": "50 to 100", "unit": "µM"}, {"measurement": "EC50", "setting": "[1]; Staphylococcus aureus, NCTC8325, Erythrocyte, Assay 4, hemolysin production, assess relative to AVU1", "value": 31, "unit": "µM"}, {"measurement": "MIC", "setting": "[2]; Assay 2", "value": ">1000", "unit": "µM"}, {"measurement": "MIC", "setting": "[2]; Assay 3", "value": ">1000", "unit": "µM"}, {"measurement": "MIC", "setting": "[2]; Assay 4", "value": ">1000", "unit": "µM"}, {"measurement": "MIC", "setting": "[2]; [9]", "value": "> 1000", "unit": "µM"}, {"measurement": "stability in mouse plasma", "setting": "[3]", "value": "degraded within a few minutes"}]}, {"smiles": "C=CCCCCCCCC(C(=O)O)C(CCc1ccccc1)OC(C)=O", "note": "(centres unmarked) [AVU1AAc, 3-acetoxy-2-(non-8-enyl)-5-phenylpentanoic acid]", "values": [{"measurement": "inhibition of hemolysis (virulence inhibition) on sheep blood agar", "setting": "[4]", "value": "high"}, {"measurement": "inhibition of SaCIpP", "setting": "[5]", "value": "inhibit SaCIpP at an at least comparable level as the in vivo active beta-lactone reference compound AVU1"}, {"measurement": "EC50", "setting": "[1]; [8]", "value": 2.43, "unit": "µM"}, {"measurement": "MIC", "setting": "[2]; [9]", "value": "50 to 100", "unit": "µM"}]}, {"smiles": "C=CCCCCCCCC(C(=O)SCC(NC(C)=O)C(=O)OC)C(CCc1ccccc1)OC(C)=O", "note": "(centres unmarked) [AVU1AAcTE, reference compound]", "values": [{"measurement": "inhibition of hemolysis (virulence inhibition) on sheep blood agar", "setting": "[4]", "value": "only low efficiency and incomplete inhibition of hemolysis"}]}, {"smiles": "C=CCCCCCCCC(C(=O)OC)C(O)CCc1ccccc1", "note": "(centres unmarked) [AVU1AME]", "values": [{"measurement": "inhibition of hemolysis (virulence inhibition) on sheep blood agar", "setting": "[4]", "value": "moderate"}, {"measurement": "inhibition of SaCIpP", "setting": "[5]", "value": "inhibit SaCIpP at an at least comparable level as the in vivo active beta-lactone reference compound AVU1"}]}, {"smiles": "C=CCCCCCCCC(C(=O)O)C(O)CCc1ccccc1", "note": "(centres unmarked) [AVU1Acid, 3-hydroxy-2-(non-8-enyl)-5-phenylpentanoic acid]", "values": [{"measurement": "inhibition of hemolysis (virulence inhibition) on sheep blood agar", "setting": "[4]", "value": "potent virulence inhibitors"}, {"measurement": "EC50", "setting": "[1]; [8]", "value": 1.18, "unit": "µM"}, {"measurement": "MIC", "setting": "[2]; [9]", "value": "50 to 100", "unit": "µM"}]}, {"smiles": "CCN(CC)CCOC(=O)c1ccc(N)cc1", "note": "[Procaine]", "values": [{"measurement": "half-life at 100 μM", "setting": "[6]", "value": "6 to 9", "unit": "min"}]}, {"smiles": "C#CC[C@H]1C(=O)O[C@@H]1CCc1ccccc1", "note": "[U1P, reference compound]", "values": [{"measurement": "labeling signal of probe", "setting": "[7]; in the absence of competitive compounds", "value": "strong labeling signal with CIpP as the main target"}]}, {"smiles": "C=CCCCCCCCC(CO)C(O)CCc1ccccc1", "note": "(centres unmarked) [VK273, 2-(non-8-enyl)-5-phenylpentandiol-1,3]", "values": [{"measurement": "labeling in the absence of U1P", "setting": "[7]; bacterial cells incubated with compound alone", "value": "did not result in any unspecific labeling"}, {"measurement": "target binding of U1P after pre-incubation with competitor", "setting": "[7]; pre-incubation 1 h at RT at 5 or 10 mM, U1P 100 μM 30 min", "value": "significantly reduced target binding of U1P"}, {"measurement": "inhibition of SaCIpP", "setting": "[5]", "value": "inhibit SaCIpP at an at least comparable level as the in vivo active beta-lactone reference compound AVU1"}, {"measurement": "EC50", "setting": "[1]; Assay 1, hemolysin production", "value": 24.8, "unit": "µM"}, {"measurement": "MIC", "setting": "[2]; Assay 1", "value": ">1000", "unit": "µM"}]}]}
